How the values were obtained:
NEP [1] = conditions: infusion into hippocampus or cortical ventricle, young rats, 4 weeks, local Aβ accumulation; cited from earlier work
From the text: The underlying mechanisms leading to better learning and improved LTP are still speculative. However, this improved learning seems more likely to be an Aβ-independent effect in our mouse model.

NEP [2] = conditions: rats and mice after treatment with thiorphan; cited from earlier work
From the text: Consistent with previous studies showing a broad spectrum of peptidases inhibited by that peptidase inhibitor [18], we hypothesized that there were other factors inhibited by thiorphan as a requisite for murine Aβ accumulation.

[3] = assay type: in vitro ADME, mice
Protocol: Figure 5 NEP-dependent neuropeptide degradation. […] The reactions were stopped by adding 0.35 M perchloric acid. In parallel assays, heat-inactivated probes (5 min at 90°C) were used as a control. After centrifugation of sedimented proteins, HPLC analyses were performed by isocratic elution as described by Siems et al.. […] The reactions were stopped by addition of 0.35 M perchloric acid. In parallel assays, heat-inactivated NEP (5 min at 90°C) was used as a control. HPLC analysis was performed by isocratic elution as described. The significance of differences was calculated by two-sided t test; n≥4; **P<0.01. (c) For galanin and GLP-1 immunohistochemistry, slices were incubated with the specific antibodies, followed by incubation with biotinylated anti-rabbit IgG. Immunoreactive products were visualized by the nickel ammonium sulfate-intensified diaminobenzidine reaction. Unequivocally stained regions in the murine cortex were localized and defined as ROIs (regions of interest), and luminometrically compared with adjacent regions without detectable staining (reference ROIs) (for both regions n = 40). The calculated differences were shown as mean±s.e.m.). Significant differences were calculated by Student's t test, indicated by **P<0.01, ***P<0.001.
The production of brain membranes and the HPLC-monitored peptide degradation procedures were performed as described in detail by Siems et al.. […]

recombinant (rc) NEP = target: T1, recombinant (rc) NEP (Homo sapiens, UniProt P08473); experiment: HPLC-monitored peptide degradation by recombinant NEP; assay type: in vitro ADME; conditions: peptide 5 µM, rcNEP 20 ng (R&D Systems), over 120 min, stopped with 0.35 M perchloric acid, heat-inactivated control, HPLC isocratic elution, n≥3; values only in Figure 5a
T1 construct: purchased R&D Systems GmbH (Wiesbaden, Germany)
Protocol: The reactions were stopped by adding 0.35 M perchloric acid. In parallel assays, heat-inactivated probes (5 min at 90°C) were used as a control. After centrifugation of sedimented proteins, HPLC analyses were performed by isocratic elution as described by Siems et al. [45]. […] The reactions were stopped by addition of 0.35 M perchloric acid. In parallel assays, heat-inactivated NEP (5 min at 90°C) was used as a control. HPLC analysis was performed by isocratic elution as described [45].
The production of brain membranes and the HPLC-monitored peptide degradation procedures were performed as described in detail by Siems et al. [45]. […] The recombinant NEP was obtained from R&D Systems GmbH (Wiesbaden, Germany).

[4] = test system: associative and spatial learning; conditions: injected intracerebroventricularly; cited from earlier work
From the text: It has been shown that NEP targets a variety of peptides involved in learning and memory such as oxytocin [36], NPY [37] or CCK [38]. Thus, marked improvement in learning and memory in very old NEP-deficient mice if compared with their aged-matched controls appears to be explained best by these NEP-degradable neuropeptides. Nevertheless, the known catalytic properties of NEP - it preferentially hydrolyses oligopeptides by cleaving on the N-terminal side of hydrophobic amino acid residues - and the knowledge of further potential learning-associated peptides [39]–[42] motivated us to t ...

T1 sequence (P08473 whole entry): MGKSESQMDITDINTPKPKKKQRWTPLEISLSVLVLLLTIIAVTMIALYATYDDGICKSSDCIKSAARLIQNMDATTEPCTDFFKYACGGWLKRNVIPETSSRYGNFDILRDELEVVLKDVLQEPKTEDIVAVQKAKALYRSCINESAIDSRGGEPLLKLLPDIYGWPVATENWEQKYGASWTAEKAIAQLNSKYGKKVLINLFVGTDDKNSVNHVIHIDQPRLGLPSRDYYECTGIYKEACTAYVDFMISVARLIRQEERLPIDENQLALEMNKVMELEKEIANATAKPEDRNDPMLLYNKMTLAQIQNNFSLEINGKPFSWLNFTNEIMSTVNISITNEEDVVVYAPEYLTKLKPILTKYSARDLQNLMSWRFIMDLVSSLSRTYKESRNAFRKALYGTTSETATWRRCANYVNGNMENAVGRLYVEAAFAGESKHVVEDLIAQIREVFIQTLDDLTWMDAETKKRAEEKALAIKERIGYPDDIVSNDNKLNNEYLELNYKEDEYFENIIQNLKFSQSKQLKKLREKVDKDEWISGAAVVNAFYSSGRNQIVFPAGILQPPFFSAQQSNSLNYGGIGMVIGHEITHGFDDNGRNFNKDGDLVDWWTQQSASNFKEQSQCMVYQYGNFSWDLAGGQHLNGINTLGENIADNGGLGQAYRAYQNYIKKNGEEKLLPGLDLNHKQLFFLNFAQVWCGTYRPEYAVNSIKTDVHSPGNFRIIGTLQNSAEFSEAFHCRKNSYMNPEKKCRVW

Compound | effect on learning and memory (NEP [1]) | deposition of endogenous Aβ (NEP [2]) | peptide degradation in brain membranes of wild-type (+/+) and knockout mice (−/−) [3] | degradation by rcNEP (recovery in %) (recombinant (rc) NEP) | effect on associative and spatial learning [4]
O=C(O)CNC(=O)C(CS)Cc1ccccc1 (stereo not drawn) [thiorphan] | impaired learning and memory | plaque formation and fibrillization |  |  | 
galanin |  |  | identified galanin as a NEP substrate | identified galanin as a NEP substrate | 
glucagon-like peptide 1 [GLP-1] |  |  | reduced rate of GLP-1 degradation in brains lacking NEP |  | improve associative and spatial learning

From publication PMC2643003, “Improved Learning and Memory in Aged Mice Deficient in Amyloid β-Degrading Neutral Endopeptidase” (PLoS ONE, 2009)
